pEC50: −log10 of the molar value. Counter-ions that a name gives are not always drawn.
Target: T1, hiNOS (Homo sapiens, UniProt P35228)
T1 construct: expressed in transfected cells; host or cells: HEK293
Test: DAN assay, hiNOS expressed in transiently transfected HEK293 cells
Format: cell-based
Settings: HEK293 cells transiently transfected with hiNOS
Excerpt: The source of nitric oxide synthase (NOS) enzyme can be generated in several ways including induction of endogenous iNOS using cytokines and/or lipopolysaccharide (LPS) in various cell types known in the art. Alternatively, the gene encoding the enzyme can be cloned and the enzyme can be generated in cells via heterologous expression from a transient or stable expression plasmid with suitable features for protein expression as are known in the art. Enzymatic activity (nitric oxide production) is calcium independent for iNOS, while the constitutive NOS isoforms, nNOS and eNOS, become active with the addition of various cofactors added to cellular media or extract as are well known in the art. Enzymes specified in Table 1 were expressed in HEK293 cells transiently transfected with the indicated NOS isoform.
A major metabolic pathway for nitric oxide is to nitrate and nitrite, which are stable metabolites within tissue culture, tissue, plasma, and urine (S Moncada, A Higgs, N Eng J Med 329, 2002 (1993)).
The level of nitrate or nitrite in the specimen can be quantified by any method known in the art which provides adequate sensitivity and reproducibility. A variety of protocols have also been described for detecting and quantifying nitrite and nitrate levels in biological fluids by ion chromatography (e.g., S A Everett et al., J. Chromatogr. 706, 437 (1995); J M Monaghan et al., J. Chromatogr. 770, 143 (1997)), high-performance liquid chromatography (e.g., M Kelm et al., Cardiovasc. Res. 41, 765 (1999)), and capillary electrophoresis (M A Friedberg et al., J. Chromatogr. 781, 491 (1997)). For example, 2,3-diaminonaphthalene reacts with the nitrosonium cation that forms spontaneously from NO to form the fluorescent product […]. Using 2,3-diaminonaphthalene (“DAN”), researchers have developed a rapid, quantitative fluorometric assay that can detect from 10 nM to 10 μM nitrite and is compatible with a multi-well microplate format. […] DAN reacts with nitrite ion and gives fluorescent […] (M C Carré et al., Analysis 27, 835-838 (1999)). Table 1 provides the test results of various compounds of the subject invention using the DAN assay.
A specimen can be processed prior to determination of nitrate or nitrite as required by the quantification method, or in order to improve the results, or for the convenience of the investigator. For example, processing can involve centrifuging, filtering, or homogenizing the sample. If the sample is whole blood, the blood can be centrifuged to remove cells and the nitrate or nitrite assay performed on the plasma or serum fraction. If the sample is tissue, the tissue can be dispersed or homogenized by any method known in the art prior to determination of nitrate or nitrite. It may be preferable to remove cells and other debris by centrifugation or another method and to determine the nitrate or nitrite level using only the fluid portion of the sample, or the extracellular fluid fraction of the sample. The sample can also be preserved for later determination, for example by freezing of urine or plasma samples. When appropriate, additives may be introduced into the specimen to preserve or improve its characteristics for use in the nitrate or nitrite assay.
The “level” of nitrate, nitrite, or other NO-related product usually refers to the concentration (in moles per liter, micromoles per liter, or other suitable units) of nitrate or nitrite in the specimen, or in the fluid portion of the specimen. However, other units of measure can also be used to express the level of nitrate or nitrite. For example, an absolute amount (in micrograms, milligrams, nanomoles, moles, or other suitable units) can be used, particularly if the amount refers back to a constant amount (e.g., grams, kilograms, milliliters, liters, or other suitable units) of the specimens under consideration. A number of commercially available kits can be used.

Cc1cc(C(C)(C)C(=O)NCCNCc2ccc3c(c2)OCO3)nc(-n2ccnc2)n1 [Example 66, N-{2-[(Benzo[1,3]dioxol-5-ylmethyl)-amino]-ethyl}-2-(2-imidazol-1-yl-6-methyl-pyrimidin-4-yl)-isobutyramide]
pEC50: > 6.00

CCOC(=O)C(CC(=O)NCCc1ccc2c(c1)OCO2)c1nc(-n2ccnc2)ns1 (stereo not shown) [Example 67, N-(2-Benzo[1,3]dioxol-5-yl-ethyl)-2-(3-imidazol-1-yl-[2,4]thiadiazol-5-yl)-succinamic acid ethyl ester]
pEC50: > 6.00

CC(NCCNCc1ccc2c(c1)OCO2)c1csc(-n2ccnc2)n1 (stereo not shown) [Example 68, N-Benzo[1,3]dioxol-5-ylmethyl-N′-[1-(2-imidazol-1-yl-thiazol-4-yl)-ethyl]-ethane-1,2-diamine]
pEC50: > 6.00

CCOC(=O)CN(Cc1cc(C)nc(-n2ccnc2)n1)C(=O)NCCc1ccc2c(c1)OCO2 [Example 69, [3-(2-Benzo[1,3]dioxol-5-yl-ethyl)-1-(2-imidazol-1-yl-6-methyl-pyrimidin-4-ylmethyl)-ureido]-acetic acid ethyl ester]
pEC50: > 6.00

Cc1cc(CN(CC(N)=O)C(=O)NCCc2ccc3c(c2)OCO3)nc(-n2ccnc2)n1 [Example 70, (2-[3-(2-Benzo[1,3]dioxol-5-yl-ethyl)-1-(2-imidazol-1-yl-6-methyl-pyrimidin-4-ylmethyl)-ureido]-acetamide)]
pEC50: > 6.00

Cc1cc(CNS(=O)(=O)NCCc2ccc3c(c2)OCO3)nc(-n2ccnc2)n1 [Example 71]
pEC50: > 4.30

Cc1cc(C(C)(C)C(=O)NCCCc2ccc3c(c2)OCO3)nc(-n2ccnc2)n1 [Example 72, 2-(2-(1H-imidazol-1-yl)-6-methylpyrimidin-4-yl)-N-(3-(benzo[d][1,3]dioxol-5-yl)propyl)-2-methylpropanamide]
pEC50: > 4.30

Cc1cc(C(C)(C)/C=C/C(=O)NCc2ccc3c(c2)OCO3)nc(-n2ccnc2)n1 [Example 74, (E)-4-(2-(1H-Imidazol-1-yl)-6-methylpyrimidin-4-yl)-N-(benzo[d][1,3]dioxol-5-ylmethyl)-4-methylpent-2-enamide]
pEC50: > 4.30

Cc1cc(C(C)(C)CCC(=O)NCc2ccc3c(c2)OCO3)nc(-n2ccnc2)n1 [Example 75, 4-(2-(1H-Imidazol-1-yl)-6-methylpyrimidin-4-yl)-N-(benzo[d][1,3]dioxol-5-ylmethyl)-4-methylpentanamide]
pEC50: > 6.00

Cc1cc(C(C)(C)CCCNCc2ccc3c(c2)OCO3)nc(-n2ccnc2)n1 [Example 76, 4-(2-(1H-Imidazol-1-yl)-6-methylpyrimidin-4-yl)-N-(benzo[d][1,3]dioxol-5-ylmethyl)-4-methylpentan-1-amine]
pEC50: > 6.00

Cc1cc(C(C)(C)NCCNCc2ccc3c(c2)OCO3)nc(-n2ccnc2)n1 [Example 77, N-1-(2-(2-(1H-Imidazol-1-yl)-6-methylpyrimidin-4-yl)propan-2-yl)-N-2-(benzo[d][1,3]dioxol-5-ylmethyl)ethane-1,2-diamine hydrochloride]
pEC50: > 6.00

Cc1cc(C(C)(C)CNCCCc2ccc3c(c2)OCO3)nc(-n2ccnc2)n1 [Example 78, (3-Benzo[1,3]dioxol-5-yl-propyl)-{2-[2-(2H-imidazol-1-yl)-6-methyl-pyrimidin-4-yl]-2-methyl-propyl}-amine hydrochloride]
pEC50: > 6.00

CN(CCCN(C)c1nc(-n2ccnc2)ns1)Cc1ccc2c(c1)OCO2 [Example 79, N-Benzo[1,3]dioxol-5-ylmethyl-N′-(3-imidazol-1-yl-[1,2,4]thiadiazol-5-yl)-N,N′-dimethyl-propane-1,3-diamine]
pEC50: > 6.00

CN(CCCN(Cc1ccc2c(c1)OCO2)C(=O)OC(C)(C)C)c1nc(-n2cnc(I)c2)ns1 [Example 80]
pEC50: < 4.30

CN(CCCNCc1ccc2c(c1)OCO2)c1nc(-n2cnc(I)c2)ns1 [Example 81, N′-Benzo[1,3]dioxol-5-ylmethyl-N-[3-(4-iodo-imidazol-1-yl)-[1,2,4]thiadiazol-5-yl]-N-methyl-propane-1,3-diamine]
pEC50: < 4.30

CN(CCCN(C)c1nc(-n2ccnc2)ns1)Cc1ccc2c(c1)OCCO2 [Example 82, N-(2,3-Dihydro-benzo[1,4]dioxin-6-ylmethyl)-N′-(3-imidazol-1-yl-[1,2,4]thiadiazol-5-yl)-N,N′-dimethyl-propane-1,3-diamine]
pEC50: > 6.00

CN(CCNCCc1ccc2c(c1)OCCO2)c1nc(-n2ccnc2)ns1 [Example 83, N′-[2-(2,3-Dihydro-benzo[1,4]dioxin-6-yl)-ethyl]-N-(3-imidazol-1-yl-[1,2,4]thiadiazol-5-yl)-N-methyl-ethane-1,2-diamine]
pEC50: > 6.00

CN(CCc1ccc2c(c1)OCCO2)CCN(C)c1nc(-n2ccnc2)ns1 [Example 84, N-[2-(2,3-Dihydro-benzo[1,4]dioxin-6-yl)-ethyl]-N′-(3-imidazol-1-yl-[1,2,4]thiadiazol-5-yl)-N,N′-dimethyl-ethane-1,2-diamine]
pEC50: > 6.00

CN(CCCNCCc1ccc2c(c1)OCCO2)c1nc(-n2ccnc2)ns1 [Example 85, N′-[2-(2,3-Dihydro-benzo[1,4]dioxin-6-yl)-ethyl]-N-(3-imidazol-1-yl-[1,2,4]thiadiazol-5-yl)-N-methyl-propane-1,3-diamine]
pEC50: > 6.00

CN(CCCN(C)c1nc(-n2ccnc2)ns1)CCc1ccc2c(c1)OCCO2 [Example 86, N-[2-(2,3-Dihydro-benzo[1,4]dioxin-6-yl)-ethyl]-N′-(3-imidazol-1-yl-[1,2,4]thiadiazol-5-yl)-N,N′-dimethyl-propane-1,3-diamine]
pEC50: > 6.00

CN(CCCNCCc1ccc2c(c1)OCO2)c1nc(-n2ccnc2)ns1 [Example 87, N′-(2-Benzo[1,3]dioxol-5-ethyl)-N-(3-imidazol-1-yl-[1,2,4]thiadiazol-5-yl)-N-methyl-propane-1,3-diamine]
pEC50: > 6.00

CN(CCCN(C)c1nc(-n2ccnc2)ns1)CCc1ccc2c(c1)OCO2 [Example 88, N-(2-Benzo[1,3]dioxol-5-yl-ethyl)-N′-(3-imidazol-1-yl-[1,2,4]thiadiazol-5-yl)-N,N′-dimethyl-propane-1,3-diamine]
pEC50: > 6.00

CN(CCN1CCCC1c1nc(-n2ccnc2)ns1)Cc1ccc2c(c1)OCO2 (stereo not shown) [Example 89, Benzo[1,3]dioxol-5-ylmethyl-{2-[2-(3-imidazol-1-yl-[1,2,4]thiadiazol-5-yl)-pyrrolidin-1-yl]-ethyl}-methyl-amine]
pEC50: > 6.00

Cc1cc(C2CCCN2CCNCc2ccc3c(c2)OCCO3)nc(-n2ccnc2)n1 (stereo not shown) [Example 92, (2,3-Dihydro-benzo[1,4]dioxin-6-ylmethyl)-{2-[2-(2-imidazol-1-yl-6-methyl-pyrimidin-4-yl)-pyrrolidin-1-yl]-ethyl}-amine]
pEC50: > 6.00

Cc1cc(C2CCCN2CCN(C)Cc2ccc3c(c2)OCCO3)nc(-n2ccnc2)n1 (stereo not shown) [Example 93, (2,3-Dihydro-benzo[1,4]dioxin-6-ylmethyl)-{2-[2-(2-imidazol-1-yl-6-methyl-pyrimidin-4-yl)-pyrrolidin-1-yl]-ethyl}-methyl-amine]
pEC50: > 6.00

NC(=O)C1CCC(C(=O)NCCc2ccc3c(c2)OCO3)N1c1nc(-n2ccnc2)ns1 (stereo not shown) [Example 95]
pEC50: > 6.00

CNC(=O)C1CCC(C(=O)NCCc2ccc3c(c2)OCO3)N1c1nc(-n2ccnc2)ns1 (stereo not shown) [Example 96, 1-(3-Imidazol-1-yl-[1,2,4]thiadiazol-5-yl)-pyrrolidine-2,5-dicarboxylic acid 2-[(2-benzo[1,3]dioxol-5-yl-ethyl)-amide] 5-methylamide]
pEC50: > 4.30

Cc1cc(C(C)NCCNCc2ccc(-n3cccc3)cc2)nc(-n2ccnc2)n1 (stereo not shown) [Example 97, N-[1-(2-Imidazol-1-yl-6-methyl-pyrimidin-4-yl)-ethyl]-N′-(4-pyrrol-1-yl-benzyl)-ethane-1,2-diamine]
pEC50: > 4.30

Source: patent US7825256B2, “Inducible nitric oxide synthase dimerization inhibitors” (Kalypsys, Inc., priority 2004, dated 2010)
